Measured values from patent publication US9468670B2, “Melatonin-based treatment and diagnosis of bile duct disease” (Texas A&M University System, priority 2011, dated 2016).
“Also recorded” adds a separate entry of the source.

Columns and labels:
[1] = test system: SR, CFTR, Cl−/HCO3− AE2, VEGF-A/C; test: Expression of PCNA, SR, CFTR, Cl−/HCO3− AE2, VEGF-A/C in liver sections, liver tissue and cholangiocytes of Morpholino-treated rats; assay type: in vivo, rat; conditions: normal rats, 1 week
Procedure: In separate experiments, normal rats treated with Vivo-Morpholino sequences of AANAT (5′-[…] (SEQ ID NO:1), to reduce the biliary expression of AANAT) or Morpholino mismatched (5′-[…] (SEQ ID NO:2)) (Gene Tools LCC) (1 mg/Kg BW/day) for 1 week via an implanted portal vein catheter. Serum, liver tissue, cholangiocytes, kidney, spleen, small intestine, stomach and heart were collected. Since our goal was to knock-down AANAT expression in the liver without inhibiting AANAT expression in other organs, we used a lower dose (1 mg/Kg/day) of Vivo-Morpholino than that described in the original study (3.0 mg/kg/day (Arora et al., 2002). This approach minimizes the amount of Vivo-Morpholino that circulates outside of the liver after slow infusion into the portal vein. See below for the surgical procedure for the implantation of the portal vein catheter by which AANAT Vivo-Morpholino or Morpholino mismatched was administered.
By real-time PCR (Francis et al., 2008), the expression of PCNA, SR, CFTR, Cl^−/HCO3^− AE2, VEGF-A/C was evaluated in total RNA from: (i) cholangiocytes from normal rats, and BDL rats treated with melatonin; and (ii) liver tissue and cholangiocytes from rats treated with mismatch or AANAT Vivo-Morpholino for 1 week. A ΔΔCT analysis was obtained using normal cholangiocytes or normal total liver as control samples (Francis et al., 2008). The primers for rat PCNA, SR, CFTR, Cl^−/HCO3^− AE2, VEGF-A/C (SABiosciences) were designed according to the NCBI GenBank Accession numbers: NM_022381 (PCNA); NM_031115 (SR); NM_017048 (Cl^−/HCO3^− AE2); XM_001059206 (CFTR); NM_031836 (VEGF-A); and NM_053653 (VEGF-C). The percentage of cholangiocytes positive for SR, CFTR, Cl^−/HCO3^− AE2 and VEGF-A/C was evaluated in liver sections: when 0%-5% of bile ducts were positive a negative score was assigned; a +/−score was assigned when 6%-10% of ducts were positive; a +score was assigned when 11%-30% of bile ducts were positive (Glaser et al., 2009).

[2] = test system: Mz-ChA-1 cells; test: Mz-ChA-1 cholangiocarcinoma xenograft in nude mice: tumor size and immunohistochemistry of tumor sections; assay type: in vivo, nude (nu/nu) mice
Procedure: AANAT expression was assessed in liver biopsy samples from CCA patients and controls by immunohistochemistry, and in non-malignant cholangiocytes and intra- and extrahepatic CCA lines by qPCR and immunoblots. Melatonin secretion was assessed in the supernatant of normal and CCA lines, and serum and bile from controls and CCA patients by EIA. In the CCA line Mz-ChA-1 stably overexpressing AANAT, the expression of AANAT, melatonin secretion, and CCA proliferation were studied after 48 hr of incubation. In in vivo studies, Mz-ChA-1 cells were injected Sub Q into the hind flanks of nu/nu mice. Tumors were allowed to develop and volumes were measured for 41 days during treatment with saline or melatonin (4 mg/kg BW, IP 3×wk). Tumors were analyzed for AANAT, PCNA, CK-19 and Bax by qPCR and immunoblots. Tumor tissue sections were analyzed for TUNEL, and staining for AANAT, PCNA and CK-19.
Experiments were performed to evaluate the in vivo effect of melatonin on the growth of cholangiocarcinoma cell lines implanted in the flanks of athymic mice (Francis H et al., 2009). Male BALB/c 6-wk-old nude (nu/nu) mice (Taconic Farms. Hudson, N.Y.) were kept in a temperature-controlled environment (20-22° C.) with 12-hr light-dark cycles, fed ad libitum standard mouse chow, and with free access to drinking water. Mz-ChA-1 cells (5×10^6) were suspended in 0.2 ml of extracellular matrix gel and injected subcutaneously in the rear flanks of the nude mice. After the establishment of the tumor (one week with a tumor size of ˜5 mm^3) mice (n=4) were treated with vehicle (5% ethanol in water) or melatonin (4 mg/kg BW, dissolved in 5% aqueous ethanol solution) (Sewerynek et al., 1995) by IP injections three times a week. Tumor variables were measured three times a week by an electronic caliper, and volume was determined as follows: tumor volume (mm^3)=0.5×[length (mm)×width (mm)×height (mm)]. The measurements started from the first week when the tumor mass was established. After 43 days of treatment, were anesthetized with sodium pentobarbital (50 mg/kg BW IP) and tumor tissues were harvested from the flanks of the mice. Heart, liver, and kidney tissues were collected for evaluation of organ damage by H&E staining of paraffin-embedded sections ([…]). All experiments were conducted under the guidelines of the Scott & White and Texas A&M HSC IACUC Committee. Tumors were allowed to grow until maximum allowable tumor burden was reached as set forth by the Scott & White and Texas A&M HSC IACUC tumor burden policy. Tumor tissues were fixed for 4 hr in 10% buffered formalin and embedded in low-temperature fusion paraffin. Subsequently, sections (4-5 mm) were stained: (i) with H & E for evaluation of necrosis (Francis et al., 2009); and (ii) for PCNA (a marker of proliferation) (Francis et al., 2009), cleaved caspase-3 (for measurement of apoptosis) (Arai et al., 2005), AANAT, ASMT, melatonin, MT1 and MT2 by immunohistochemistry (Francis et al., 2009). Negative controls were obtained by staining the tumor sections with non-immune serum with the omission of the primary antibody. Semiquantitative analysis for these markers was evaluated by image-analysis software, Image-Pro Plus (Media Cybernetics, Silver Springs, Md.) (Lejeune et al., 2008). Three randomly chosen fields were calculated for statistics.

[3] = test system: CLOCK gene; test: CLOCK expression by qPCR in CCA lines after melatonin; assay type: cell-based, human; conditions: melatonin 10-11 M for 48 hours
Procedure: Methods: Melatonin immunoreactivity, the expression of melatonin biosynthesis enzymes and receptors were assessed by immunohistochemistry in tissue arrays from normal and CCA patients, and by qPCR and immunoblots in intra-hepatic and extra-hepatic CCA cell lines, and a normal cholangiocyte line (H69). Proliferation was evaluated in vitro by MTS assay in CCA lines and H69 after treatment with melatonin (10-7 to 10-11 M, 24-72 hours). In parallel, the expression of CLOCK after melatonin treatment (10-11 M for 48 hours) was assessed in CCA lines and normal cholangiocytes by qPCR.

[4] = tumor sections, semiquantitative immunohistochemistry

For “AANAT Vivo-Morpholino: Vivo-Morpholino sequence of AANAT 5′-GTTCCCCAGCTTTGGAAGTGGTCCC (SEQ ID NO:1), to reduce the biliary expression of AANAT (all phosphorodiamidate morpholino (PMO); Vivo-Morpholino delivery moiety attached, position not given here, further chemistry not fully specified)”, the “Immunoreactivity of cholangiocytes to CFTR” value [1] was “+ (a +score was assigned when 11%-30% of bile ducts were positive)”, the “Immunoreactivity of cholangiocytes to Cl−HCO3− AE2” value [1] was “+ (a +score was assigned when 11%-30% of bile ducts were positive)” and the “Immunoreactivity of cholangiocytes to SR” value [1] was “+ (a +score was assigned when 11%-30% of bile ducts were positive)”. For the same compound, the “Immunoreactivity of cholangiocytes to VEGF-A” value [1] was “+ (a +score was assigned when 11%-30% of bile ducts were positive)” and the “Immunoreactivity of cholangiocytes to VEGF-C” value [1] was “+ (a +score was assigned when 11%-30% of bile ducts were positive)”.
COc1ccc2[nH]cc(CCNC(C)=O)c2c1 [melatonin] was tested, and the “Tumor size / xenograft tumor growth” value ([2]; nude mice, melatonin 4 mg/kg BW IP three times a week vs. vehicle) was “significant decrease; also recorded: significantly reduced”, the “Necrosis (percentage of the whole field of section)” value ([2]; tumor sections, H&E, 4 mg/kg BW IP three times a week) was over 75%^ψ and the AANAT [2, 4] was 1584.52 ± 127. For the same compound, the ASMT [2, 4] was 46051.09 ± 13063.04, the “Cleaved caspase-3” value [2, 4] was 4490.66 ± 1053.52 and the MT1 [2, 4] was 1847.76 ± 419.9. The MT2 [2, 4] was 1417.96 ± 425.71, the “Melatonin (immunoreactivity)” value [2, 4] was 41231.48 ± 7634.43 and the PCNA [2, 4] was 0.25 ± 0.09 (% of total % of total nucleus. For the same compound, the “Increase in levels of the CLOCK gene in CCA cells” value [3] was about 50%.
